# Measured values reported in patent US5695970A, “Glucan lyase producing 1,5-anhydrofructose” (priority 1992, dated 1997).
# Read-outs that look alike come from different tables or passages of the source.
# Key:
# [1] = format: physicochemical; settings: for Absorbance at 546 nm: room temperature; for Absorbance (546 nm): Table VII, 10 min after DNS reagent
# Description: It can be seen that the reaction was completed in less than 10 minutes. […] (1990) Methods in Plant Biochemistry (Dey, P. M. and Harborne, J. B., eds.), Vol.3, pp. 103-127, Academic Press, London). |Time-course reaction of AF with DNS reagent at room |temperature. The absorbance at 546 nm as a measure of reaction |rate was recorded soon after the addition of 300 μl DNS reagent |to 300 μl sample solution containing varying amount of AF. […] The reaction of AF with 3,5-dinitrosalicylic acid reagent occurred at room temperature and was completed within 10 min (Table VI). A linear relationship exists for AF between the absorbance of 0.1-2.3 at 546 nm and AF content, ranging from 0.3-2.7 μmol or 50-440 μg i 300 μl sample (Table VII). […] This method is applicable to both the smallest substrate as maltose and the largest substrate as amylopectin. |The correlation between AF content and absorbance. |Absorbance was measured 10 min after the addition of |300 μl DNS reagent to 300 μl sample solution |containing varying amount of AF as indicated.
# glucose peroxidase = experiment: Metabolization of AF by glucose peroxidase; format: biochemical
# α-1,4-glucan lyase = experiment: Inhibition studies of α-1,4-glucan lyase activity; format: biochemical, Gracilariopsis lemaneiformis; settings: products accumulating during the enzyme reaction
# Description: The reaction mixture for the assay of α-1,4-glucan lyase was composed of 240 μl 62.5 mM Mops-NaOH containing 6 mg soluble starch (pH 6.2), the enzyme preparation and distilled water to a final volume of 300 μl. The reaction was carried out at 30° C. for 10-30 min. Liberated 1,5-anhydrofructose was determined by monitoring the absorbance at 546 nm after the addition of 3,5-dinitrosalicylic acid reagent. Soluble starch in the reaction mixture may be replaced by other substrates and the final substrate concentration may be varied as indicated in the text. The reaction time and enzyme concentration used in enzyme activity assay have been chosen to ensure the linearity of the reaction rate. One unit of α-1,4-glucan lyase activity is defined as the amount of enzyme which liberates 1μmol of 1,5-anhydrofructose min^-1 under the conditions described above.
# [2] = system: hexokinase and glucose-6-phosphate dehydrogenase pathway; experiment: Metabolization of AF by hexokinase and glucose-6-phosphate dehydrogenase; format: biochemical
smiles,measurement,setting,value
"O=C1CO[C@H](CO)[C@@H](O)[C@@H]1O [AF, 1,5-anhydrofructose]",reducing power (in words),"[1]; 3,5-dinitrosalicylic acid reagent at room temperature",high reducing power
same,Absorbance at 546 nm,"[1]; AF content 0.55 μmol, reaction time 0 min",0
same,Absorbance at 546 nm,"[1]; AF content 0.55 μmol, reaction time 1 min",0.037
same,Absorbance at 546 nm,"[1]; AF content 0.55 μmol, reaction time 2 min",0.180
same,Absorbance at 546 nm,"[1]; AF content 0.55 μmol, reaction time 3 min",0.274
same,Absorbance at 546 nm,"[1]; AF content 0.55 μmol, reaction time 4 min",0.341
same,Absorbance at 546 nm,"[1]; AF content 0.55 μmol, reaction time 5 min",0.386
same,Absorbance at 546 nm,"[1]; AF content 0.55 μmol, reaction time 6 min",0.414
same,Absorbance at 546 nm,"[1]; AF content 0.55 μmol, reaction time 7 min",0.431
same,Absorbance at 546 nm,"[1]; AF content 0.55 μmol, reaction time 8 min",0.440
same,Absorbance at 546 nm,"[1]; AF content 0.55 μmol, reaction time 9 min",0.444
same,Absorbance at 546 nm,"[1]; AF content 0.55 μmol, reaction time 10 min",0.446
same,Absorbance at 546 nm,"[1]; AF content 1.26 μmol, reaction time 0 min",0
same,Absorbance at 546 nm,"[1]; AF content 1.26 μmol, reaction time 1 min",0.218
same,Absorbance at 546 nm,"[1]; AF content 1.26 μmol, reaction time 2 min",0.468
same,Absorbance at 546 nm,"[1]; AF content 1.26 μmol, reaction time 3 min",0.660
same,Absorbance at 546 nm,"[1]; AF content 1.26 μmol, reaction time 4 min",0.796
same,Absorbance at 546 nm,"[1]; AF content 1.26 μmol, reaction time 5 min",0.888
same,Absorbance at 546 nm,"[1]; AF content 1.26 μmol, reaction time 6 min",0.948
same,Absorbance at 546 nm,"[1]; AF content 1.26 μmol, reaction time 7 min",0.985
same,Absorbance at 546 nm,"[1]; AF content 1.26 μmol, reaction time 8 min",1.007
same,Absorbance at 546 nm,"[1]; AF content 1.26 μmol, reaction time 9 min",1.024
same,Absorbance at 546 nm,"[1]; AF content 1.26 μmol, reaction time 10 min",1.029
same,Absorbance at 546 nm,"[1]; AF content 2.36 μmol, reaction time 0 min",0
same,Absorbance at 546 nm,"[1]; AF content 2.36 μmol, reaction time 1 min",0.476
same,Absorbance at 546 nm,"[1]; AF content 2.36 μmol, reaction time 2 min",0.930
same,Absorbance at 546 nm,"[1]; AF content 2.36 μmol, reaction time 3 min",1.271
same,Absorbance at 546 nm,"[1]; AF content 2.36 μmol, reaction time 4 min",1.510
same,Absorbance at 546 nm,"[1]; AF content 2.36 μmol, reaction time 5 min",1.671
same,Absorbance at 546 nm,"[1]; AF content 2.36 μmol, reaction time 6 min",1.775
same,Absorbance at 546 nm,"[1]; AF content 2.36 μmol, reaction time 7 min",1.840
same,Absorbance at 546 nm,"[1]; AF content 2.36 μmol, reaction time 8 min",1.880
same,Absorbance at 546 nm,"[1]; AF content 2.36 μmol, reaction time 9 min",1.905
same,Absorbance at 546 nm,"[1]; AF content 2.36 μmol, reaction time 10 min",1.920
same,Absorbance at 546 nm,"[1]; AF content 2.84 μmol, reaction time 0 min",0
same,Absorbance at 546 nm,"[1]; AF content 2.84 μmol, reaction time 1 min",0.559
same,Absorbance at 546 nm,"[1]; AF content 2.84 μmol, reaction time 2 min",1.222
same,Absorbance at 546 nm,"[1]; AF content 2.84 μmol, reaction time 3 min",1.628
same,Absorbance at 546 nm,"[1]; AF content 2.84 μmol, reaction time 4 min",1.898
same,Absorbance at 546 nm,"[1]; AF content 2.84 μmol, reaction time 5 min",2.070
same,Absorbance at 546 nm,"[1]; AF content 2.84 μmol, reaction time 6 min",2.176
same,Absorbance at 546 nm,"[1]; AF content 2.84 μmol, reaction time 7 min",2.239
same,Absorbance at 546 nm,"[1]; AF content 2.84 μmol, reaction time 8 min",2.278
same,Absorbance at 546 nm,"[1]; AF content 2.84 μmol, reaction time 9 min",2.300
same,Absorbance at 546 nm,"[1]; AF content 2.84 μmol, reaction time 10 min",2.311
same,Absorbance (546 nm),[1]; AF content 0.264 μmol,0.113
same,Absorbance (546 nm),[1]; AF content 0.340 μmol,0.154
same,Absorbance (546 nm),[1]; AF content 0.360 μmol,0.166
same,Absorbance (546 nm),[1]; AF content 0.526 μmol,0.305
same,Absorbance (546 nm),[1]; AF content 0.540 μmol,0.237
same,Absorbance (546 nm),[1]; AF content 0.636 μmol,0.355
same,Absorbance (546 nm),[1]; AF content 0.655 μmol,0.514
same,Absorbance (546 nm),[1]; AF content 0.702 μmol,0.584
same,Absorbance (546 nm),[1]; AF content 0.929 μmol,0.682
same,Absorbance (546 nm),[1]; AF content 1.089 μmol,0.710
same,Absorbance (546 nm),[1]; AF content 1.148 μmol,0.880
same,Absorbance (546 nm),[1]; AF content 1.181 μmol,0.880
same,Absorbance (546 nm),[1]; AF content 1.241 μmol,1.099
same,Absorbance (546 nm),[1]; AF content 1.514 μmol,1.415
same,Absorbance (546 nm),[1]; AF content 1.529 μmol,1.260
same,Absorbance (546 nm),[1]; AF content 1.588 μmol,1.516
same,Absorbance (546 nm),[1]; AF content 1.627 μmol,1.302
same,Absorbance (546 nm),[1]; AF content 1.712 μmol,1.409
same,Absorbance (546 nm),[1]; AF content 2.031 μmol,1.830
same,Absorbance (546 nm),[1]; AF content 2.052 μmol,1.703
same,Absorbance (546 nm),[1]; AF content 2.183 μmol,1.806
same,Absorbance (546 nm),[1]; AF content 2.241 μmol,1.787
same,Absorbance (546 nm),[1]; AF content 2.362 μmol,1.875
same,Absorbance (546 nm),[1]; AF content 2.683 μmol,2.266
same,Absorbance (546 nm),[1]; AF content 3.221 μmol,2.590
same,metabolization by glucose peroxidase,glucose peroxidase,can not be metabolized
same,product inhibition: effect on enzyme reaction rate,"α-1,4-glucan lyase",negligible effect
same,metabolization through hexokinase and glucose-6-phosphate dehydrogenase pathway,[2],can not be metabolized
